Source: patent US12331096B2, “Binding domain mapping and compounds, compositions, complexes, methods, and kits related thereto” (GEORGE MASON RESEARCH FOUNDATION, INC., priority 2019, dated 2025)
“And” between values parts separate entries of the source, which are not always exact repeats. Identical values can stand only once. “Also recorded” adds a separate entry of the source. Like-named read-outs stand apart in the source and are kept apart here. Where a SMILES comes first, the peptide text is derived from it. Bridges are numbered along the chain shown (N, C = ends).

How the values were obtained:
[1] = Solubility of azo coupling products synthesized in PBS; assay type: physicochemical; details: synthesized at room temperature in PBS, pH 7.4
Procedure: Dyes stocks were prepared to 1 mg/mL final concentrations. Synthesis was conducted as follows: Fast Dyes were mixed in 1× Dubelcco's PBS with an excess of coupling agent (3-fold molar concentration of coupling agent to fast dye) and vortexed. Reactions were conducted at room temperature and proceeded in the first 5 minutes of mixing with evident color change. Dye stocks were allowed to incubate at room temperature for one week prior to use. Dyes were used without further purification and were diluted prior to use in protein painting. Dye reagents were vortexed before each use, and stable for >6 months at room temperature. Reactions were monitored by reverse phase C18 TLC (mobile phase of 60% methanol, 40% water) to determine number of product bands. […] The two major product bands were separated via reverse-phase flash column chromatography conducted essentially as described previously using a 20 mm column, stationary phase of COSMOSIL C18-OPN reverse phase resin (Nacalai USA, Catalog number 37842-66), and mobile phase of 60% methanol or 30% acetonitrile. Fractions containing individual bands were identified via reverse-phase TLC and were pooled and dried. Pure samples by TLC were analyzed by NMR to confirm structure of each major product.
Two different fast dyes were used to synthesize new dye candidates. Fast Blue B was chosen to synthesize new diazo dyes, as it is structurally similar to the core of TB, while Fast Red TR was chosen to synthesize new halogenated small dyes. Four diverse coupling agents, 4-Amino-1-naphthalenesulfonic Acid or naphthionic acid, 4-Amino-5-hydroxy-2,7-naphthalenedisulfonic acid or H-acid, 7-Amino-1,3-naphthalenedisulfonic acid or Amino G Acid, and 2-napthol were chosen to evaluate the role of sulfonates on specific binding. […] The remaining 5 candidate dyes, Fast Blue B+Naphthionic Acid (FBBNA), Fast Blue B+H-acid (FBBHA), Fast Red TR+Naphthionic Acid (FRNA), Fast Red TR+H-acid (FRHA), and Fast Red TR+Amino G Acid (FRAGA), were all evaluated for their specific binding with respect to thyroglobulin (see Table 3).

Thyroglobulin = molecular target: T1, Thyroglobulin (Bos taurus, UniProt P01267); assay: Specific binding of dye to thyroglobulin (gel filtration, UV-Vis); details: for Specific binding to thyroglobulin at equilibrium: Vmax of Michaelis-Menten fit, no CuSO4
T1 construct: purchased Sigma Aldrich 9010-34-8
Procedure: (§1) To determine specific binding of each candidate dye, thyroglobulin was primarily used as a model protein, because its large surface area facilitated more molecules of dye binding per protein, and thus higher signal to noise ratios versus smaller proteins. Candidate dyes were examined on a UV-2501PC UV-Vis spectrometer to determine Amax values. Standard curves were prepared for quantification of molecules of dye; dyes were eliminated from consideration if sensitivity of detection was not greater than 10 μM in solution. Thyroglobulin (1-5 μM) was mixed with 100-fold molar excess of candidate dye dissolved in PBS and allowed to associate between 15 seconds to 2 hours at room temperature. After association, 50 μL of the dye-protein mixtures were passed through a mini Quick Spin Oligo Column (Sephadex G-25 resin, Roche) and centrifugated at 1000× g for 1 min to separate unbound dye from the protein-dye complex. The collected flow-through was examined with UV-Vis spectroscopy, and quantity of dye in the flow-through was calculated using the previously developed standard curve for the dye. Specific Binding was defined as [Paint Molecules Bound]/[Protein]. A plot of specific binding versus time was fit with the Michaelis-Menton equation in GraphPad Prism 6 as a model to determine association kinetics and maximum dye binding, where Vmax represents the maximum amount of dye molecules that bind to the protein at equilibrium. All curves are fit to data from two independent experiments. Specific binding of dye candidates to lysozyme was conducted similarly, with the change that lysozyme (2-10 μM) was mixed with 50-fold molar excess of dye candidate dissolved in PBS and allowed to associate for the indicated time points.

[2] = Peptide solubility to 1 mM stock; details: solvent additive for 1 mM stock
Lysozyme = molecular target: T2, Lysozyme (Gallus gallus, UniProt P00698); assay: Specific binding of dye to lysozyme
T2 construct: purchased Sigma Aldrich 12650-88-3
Procedure: as §1

bovine serum albumin = bovine serum albumin (Bos taurus, UniProt P02769); assay: Circular dichroism spectroscopy of BSA with dye, urea denaturation
Procedure: Circular dichroism spectroscopy was conducted using bovine serum albumin on a Jasco J-1500 CD spectrometer from 190-350 nm using a 1 mm cuvette. BSA stock solutions were prepared to 2 mg/mL from lyophilized protein in sterile-filtered 10 mM phosphate buffer, pH 7.0 and centrifuged at 16,000×g to remove particulates. Concentration was determined via A280 using an extinction coefficient of 43,824 M^−1 cm^−1 for BSA. Stocks were stored at −80° C. and diluted to the appropriate concentration in sterile-filtered MilliQ water for each experiment. Final concentration of BSA in each sample was 2 μM (0.12 mg/mL). Samples were incubated for 10 minutes with dye at a molar ratio equal to the specific binding of the molecule to the protein (i.e. 18 μM of FBBNA for 1 μM of BSA). Controls were incubated with equivolume amounts of MilliQ water in place of dye. […] Helical content of BSA spectra was determined using the online server DICHROWEB (Whitmore, L., and Wallace, B. A., “Protein secondary structure analyses from circular dichroism spectroscopy: methods and reference databases.” Biopolymers. 89, 392-400, 2008; Whitmore, L., and Wallace, B. A., “DICHROWEB, an online server for protein secondary structure analyses from circular dichroism spectroscopic data.” Nucleic Acids Res. 32, W668-673, 2004) to confirm native structure.

T2 sequence (P00698 19-147): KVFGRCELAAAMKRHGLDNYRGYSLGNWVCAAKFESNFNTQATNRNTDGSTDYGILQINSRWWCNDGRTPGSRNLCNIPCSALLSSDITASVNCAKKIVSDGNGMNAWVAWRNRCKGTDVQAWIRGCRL
T1 sequence (P01267 20-2769): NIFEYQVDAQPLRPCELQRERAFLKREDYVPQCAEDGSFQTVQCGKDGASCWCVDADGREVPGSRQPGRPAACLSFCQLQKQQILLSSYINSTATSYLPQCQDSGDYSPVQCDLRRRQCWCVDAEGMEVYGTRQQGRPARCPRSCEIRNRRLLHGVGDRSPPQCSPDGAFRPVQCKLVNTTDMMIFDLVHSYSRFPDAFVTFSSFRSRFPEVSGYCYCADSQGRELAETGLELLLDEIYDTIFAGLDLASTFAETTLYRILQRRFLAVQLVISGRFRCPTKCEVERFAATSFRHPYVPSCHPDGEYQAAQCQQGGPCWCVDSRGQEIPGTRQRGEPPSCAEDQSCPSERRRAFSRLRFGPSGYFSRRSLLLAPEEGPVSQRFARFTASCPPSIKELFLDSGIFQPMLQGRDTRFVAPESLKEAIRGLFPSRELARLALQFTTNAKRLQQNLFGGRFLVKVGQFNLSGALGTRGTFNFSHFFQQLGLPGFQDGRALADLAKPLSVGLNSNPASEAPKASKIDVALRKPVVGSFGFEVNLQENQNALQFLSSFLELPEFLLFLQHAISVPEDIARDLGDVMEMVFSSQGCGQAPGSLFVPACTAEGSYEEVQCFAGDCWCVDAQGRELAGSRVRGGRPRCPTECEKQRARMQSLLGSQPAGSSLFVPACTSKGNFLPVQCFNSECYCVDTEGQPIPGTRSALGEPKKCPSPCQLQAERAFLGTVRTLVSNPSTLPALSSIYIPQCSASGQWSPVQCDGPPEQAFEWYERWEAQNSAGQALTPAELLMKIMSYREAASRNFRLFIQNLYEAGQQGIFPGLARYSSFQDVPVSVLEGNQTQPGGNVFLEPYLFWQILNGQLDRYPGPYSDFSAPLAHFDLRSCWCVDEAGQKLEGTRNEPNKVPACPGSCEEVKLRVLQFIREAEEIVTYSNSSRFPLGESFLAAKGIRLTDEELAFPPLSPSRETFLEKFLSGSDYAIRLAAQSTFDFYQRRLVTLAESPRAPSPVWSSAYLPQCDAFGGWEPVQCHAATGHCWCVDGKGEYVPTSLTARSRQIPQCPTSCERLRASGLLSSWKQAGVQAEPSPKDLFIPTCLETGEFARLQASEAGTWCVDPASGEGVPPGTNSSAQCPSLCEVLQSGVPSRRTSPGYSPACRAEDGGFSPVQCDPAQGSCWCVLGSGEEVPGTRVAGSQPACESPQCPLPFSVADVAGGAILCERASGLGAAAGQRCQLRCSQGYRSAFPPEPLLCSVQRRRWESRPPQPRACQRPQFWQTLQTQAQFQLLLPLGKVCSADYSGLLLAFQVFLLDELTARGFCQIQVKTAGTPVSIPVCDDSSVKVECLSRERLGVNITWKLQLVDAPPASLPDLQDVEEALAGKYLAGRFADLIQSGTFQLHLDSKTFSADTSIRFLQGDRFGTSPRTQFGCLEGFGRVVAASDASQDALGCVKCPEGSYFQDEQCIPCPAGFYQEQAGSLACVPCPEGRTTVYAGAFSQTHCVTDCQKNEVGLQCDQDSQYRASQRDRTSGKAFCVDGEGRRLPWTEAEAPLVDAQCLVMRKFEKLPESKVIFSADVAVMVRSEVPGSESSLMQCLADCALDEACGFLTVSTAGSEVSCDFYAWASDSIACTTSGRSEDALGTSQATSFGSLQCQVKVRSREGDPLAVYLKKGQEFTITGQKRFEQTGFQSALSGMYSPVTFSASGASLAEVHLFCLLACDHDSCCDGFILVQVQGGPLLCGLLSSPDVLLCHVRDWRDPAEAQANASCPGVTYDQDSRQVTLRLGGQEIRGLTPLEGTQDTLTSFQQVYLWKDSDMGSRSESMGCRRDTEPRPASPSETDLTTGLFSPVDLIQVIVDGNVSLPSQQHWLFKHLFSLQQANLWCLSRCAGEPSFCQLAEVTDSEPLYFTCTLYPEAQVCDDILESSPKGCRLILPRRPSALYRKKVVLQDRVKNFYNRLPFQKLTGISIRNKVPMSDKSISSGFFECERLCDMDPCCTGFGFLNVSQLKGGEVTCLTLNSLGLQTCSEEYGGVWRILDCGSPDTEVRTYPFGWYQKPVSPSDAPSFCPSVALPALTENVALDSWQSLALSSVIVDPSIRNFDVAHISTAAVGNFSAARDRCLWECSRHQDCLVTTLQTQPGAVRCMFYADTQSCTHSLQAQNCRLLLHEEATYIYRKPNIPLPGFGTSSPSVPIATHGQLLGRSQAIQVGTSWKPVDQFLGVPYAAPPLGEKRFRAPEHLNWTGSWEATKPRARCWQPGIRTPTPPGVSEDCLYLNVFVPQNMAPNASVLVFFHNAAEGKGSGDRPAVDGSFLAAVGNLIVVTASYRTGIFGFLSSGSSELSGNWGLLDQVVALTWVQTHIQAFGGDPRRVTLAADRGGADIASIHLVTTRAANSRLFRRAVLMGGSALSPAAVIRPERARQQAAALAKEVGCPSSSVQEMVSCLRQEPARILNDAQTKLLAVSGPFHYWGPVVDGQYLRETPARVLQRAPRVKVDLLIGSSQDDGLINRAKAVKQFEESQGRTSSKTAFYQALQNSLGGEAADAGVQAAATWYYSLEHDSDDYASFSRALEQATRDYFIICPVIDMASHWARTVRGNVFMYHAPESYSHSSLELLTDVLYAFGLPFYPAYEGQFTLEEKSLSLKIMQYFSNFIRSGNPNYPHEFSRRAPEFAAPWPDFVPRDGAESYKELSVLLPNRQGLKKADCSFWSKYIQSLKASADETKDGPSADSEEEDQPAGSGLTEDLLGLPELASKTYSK
Chain of bovine serum albumin (P02769 25-607): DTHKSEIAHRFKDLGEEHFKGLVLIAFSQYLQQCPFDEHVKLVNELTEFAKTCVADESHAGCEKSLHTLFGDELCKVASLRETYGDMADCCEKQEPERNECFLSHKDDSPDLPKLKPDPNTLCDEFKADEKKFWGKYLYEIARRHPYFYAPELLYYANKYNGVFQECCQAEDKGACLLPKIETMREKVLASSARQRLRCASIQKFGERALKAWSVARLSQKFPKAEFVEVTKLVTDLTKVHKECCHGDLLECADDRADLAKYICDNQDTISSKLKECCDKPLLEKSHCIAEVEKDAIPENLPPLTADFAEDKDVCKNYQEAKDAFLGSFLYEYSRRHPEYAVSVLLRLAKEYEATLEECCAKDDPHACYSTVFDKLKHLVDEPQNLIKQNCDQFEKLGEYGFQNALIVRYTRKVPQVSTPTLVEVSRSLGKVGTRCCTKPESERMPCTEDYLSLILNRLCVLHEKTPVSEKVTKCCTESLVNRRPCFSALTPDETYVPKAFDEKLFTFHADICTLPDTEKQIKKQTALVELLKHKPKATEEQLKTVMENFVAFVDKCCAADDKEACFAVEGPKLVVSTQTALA

With `COc1cc(-c2ccc(N=Nc3c(O)ccc4ccccc34)c(OC)c2)ccc1N=Nc1c(O)ccc2ccccc12` [FBB2N] the “Solubility of dye product” value [1] was “FBB2N: Dark Blue Pigment Insoluble”.

For `Cc1cc(Cl)ccc1N=Nc1c(O)ccc2ccccc12` [FR2N], the “Solubility of dye product” value [1] was “FR2N: Bright Orange Pigment Insoluble”.

With `Cc1cc(Cl)ccc1N=Nc1cc(S(=O)(=O)O)c2ccccc2c1N` [FRNA] the “Binding to thyroglobulin (in words)” value (Thyroglobulin) was “None of the Fast Red TR-based dyes including FRNA, FRHA, and FRAGA showed any significant binding”, the “Specific binding to thyroglobulin” value (Thyroglobulin; candidate dyes, Tables 3 and 4) was “No binding” and the “Solubility of dye product” value [1] was “Soluble”.

For `CC[C@H](C)[C@H](NC(=O)[C@H](CCSC)NC(=O)[C@H](CS)NC(=O)[C@H](CCCNC(=N)N)NC(=O)[C@@H](N)Cc1ccc(O)cc1)C(=O)N[C@@H](CO)C(=O)N[C@@H](Cc1ccc(O)cc1)C(=O)NCC(=O)NCC(=O)N[C@@H](C)C(=O)N[C@@H](CC(=O)O)C(=O)N[C@@H](Cc1ccc(O)cc1)C(=O)N[C@@H](CCCCN)C(=O)N[C@@H](CCCNC(=N)N)C(=O)N[C@H](C(=O)N[C@H](C(=O)N[C@H](C(=O)O)C(C)C)[C@@H](C)O)[C@@H](C)CC` [Peptide 1], the “Solubility (to 1 mM)” value [2] was 60% CH3COOH, and 14% CH3CN.

With `CC[C@H](C)[C@@H]1NC(=O)[C@H](CCSC)NC(=O)[C@H](C)NC(=O)[C@H](CCCNC(=N)N)NC(=O)[C@H](Cc2ccc(O)cc2)NC(=O)[C@@H](N)CSSC[C@@H](C(=O)O)NC(=O)[C@H]([C@@H](C)O)NC(=O)[C@H]([C@@H](C)CC)NC(=O)[C@H](CCCNC(=N)N)NC(=O)[C@H](CCCCN)NC(=O)[C@H](Cc2ccc(O)cc2)NC(=O)[C@H](CC(=O)O)NC(=O)[C@H](C)NC(=O)CNC(=O)CNC(=O)[C@H](Cc2ccc(O)cc2)NC(=O)[C@H](CO)NC1=O` [Peptide 2] (H-CYRAMISYGGADYKRITC-OH; disulfide 1-18) the “Solubility (to 1 mM)” value [2] was 40% CH3COOH.

With `Cc1cc(-c2ccc(/N=N/c3c(S(=O)(=O)O)cc4cc(S(=O)(=O)O)cc(N)c4c3O)c(C)c2)ccc1/N=N/c1c(S(=O)(=O)O)cc2cc(S(=O)(=O)O)cc(N)c2c1O` [TB] the “Binding to lysozyme (in words)” value (Lysozyme) was “unable to bind”, the “Binding to lysozyme (in words)” value (Lysozyme; listed as Trypan Blue) was “not to lysozyme” and the “Binding to thyroglobulin (in words)” value (Thyroglobulin) was “least specific binding”. The “Specific binding to thyroglobulin at equilibrium” value (Thyroglobulin) was 3 molecules.

For “sodium 4-(4-(benzyl-et-amino)-ph-azo)-2,5-di-cl-benzenesulphonate [AO50]”, the “Binding to lysozyme (in words)” value (Lysozyme) was “able to bind”, the “Specific binding to lysozyme at equilibrium” value (Lysozyme; Vmax of Michaelis-Menten fit) was 1 molecule and the “Specific binding to thyroglobulin at equilibrium” value (Thyroglobulin) was 15 molecules. The “Effect of dye on native secondary structure of BSA (CD)” value (bovine serum albumin; 10 min incubation with dye) was “does not change” and the “Denaturation of BSA by urea in the presence of dye (CD)” value (bovine serum albumin; urea 2M, 4M, 6M (FBBNA), 4M urea (AO50, combination)) was “attenuated; also recorded: partially stabilize”.
